How the values were obtained:
Design in all cases: scale not given: the % may be the effect or the level left
[1] = biological target: Protein kinase C theta type (Homo sapiens) (UniProt Q04759); assay: Inhibition of human PKCtheta assessed as enzyme activity at 1 uM using ERMRPRKRQGSVRRRV as substrate preincubated for 20 mins followed by [gamma-33P]-ATP addition and measured after 120 mins by radiometric Hot-SpotSM Kinase assay relative to control
[2] = biological target: T1, Aurora kinase C (Homo sapiens) (UniProt Q9UQB9); assay: Inhibition of human Aurora C assessed as enzyme activity at 1 uM using H-LRRASLG as substrate preincubated for 20 mins followed by [gamma-33P]-ATP addition and measured after 120 mins by radiometric Hot-SpotSM Kinase assay relative to control
T1 sequence (whole entry): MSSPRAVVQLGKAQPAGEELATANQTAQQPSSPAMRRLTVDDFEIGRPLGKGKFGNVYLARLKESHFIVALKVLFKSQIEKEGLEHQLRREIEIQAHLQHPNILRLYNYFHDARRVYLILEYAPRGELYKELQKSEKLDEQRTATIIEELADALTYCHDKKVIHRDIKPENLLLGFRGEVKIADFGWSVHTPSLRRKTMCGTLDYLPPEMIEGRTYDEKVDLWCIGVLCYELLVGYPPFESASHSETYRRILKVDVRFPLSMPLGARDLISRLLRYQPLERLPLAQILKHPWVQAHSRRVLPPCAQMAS

[3] = biological target: Tyrosine-protein kinase receptor UFO (Homo sapiens) (UniProt P30530); assay: Inhibition of human AXL assessed as enzyme activity at 1 uM using poly[Glu:Tyr] (4:1) as substrate preincubated for 20 mins followed by [gamma-33P]-ATP addition and measured after 120 mins by radiometric Hot-SpotSM Kinase assay relative to control
Sequence of Tyrosine-protein kinase receptor UFO (Homo sapiens) (P30530 whole entry): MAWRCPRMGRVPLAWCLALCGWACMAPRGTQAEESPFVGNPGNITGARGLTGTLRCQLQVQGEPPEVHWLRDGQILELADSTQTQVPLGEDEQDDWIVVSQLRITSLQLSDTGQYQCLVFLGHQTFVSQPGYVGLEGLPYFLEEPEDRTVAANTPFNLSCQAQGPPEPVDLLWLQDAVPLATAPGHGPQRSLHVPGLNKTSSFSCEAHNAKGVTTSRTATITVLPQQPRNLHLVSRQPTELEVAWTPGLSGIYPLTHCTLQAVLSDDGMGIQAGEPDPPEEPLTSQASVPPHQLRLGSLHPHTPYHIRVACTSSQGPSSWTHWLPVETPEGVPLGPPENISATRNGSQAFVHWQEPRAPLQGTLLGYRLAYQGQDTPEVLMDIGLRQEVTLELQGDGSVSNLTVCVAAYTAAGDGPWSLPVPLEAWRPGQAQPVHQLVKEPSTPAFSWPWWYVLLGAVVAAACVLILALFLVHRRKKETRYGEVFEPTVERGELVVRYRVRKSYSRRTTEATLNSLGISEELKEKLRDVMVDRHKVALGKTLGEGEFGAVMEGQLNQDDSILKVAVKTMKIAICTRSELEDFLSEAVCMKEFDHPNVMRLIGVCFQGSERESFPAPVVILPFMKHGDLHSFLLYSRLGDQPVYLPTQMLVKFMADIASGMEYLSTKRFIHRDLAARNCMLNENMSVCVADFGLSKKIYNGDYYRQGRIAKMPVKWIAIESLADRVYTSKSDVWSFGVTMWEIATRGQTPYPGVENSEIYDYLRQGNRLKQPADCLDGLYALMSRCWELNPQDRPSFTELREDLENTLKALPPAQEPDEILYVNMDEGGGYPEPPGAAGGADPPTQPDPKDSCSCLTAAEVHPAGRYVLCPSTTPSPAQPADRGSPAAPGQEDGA

[4] = biological target: Myosin light chain kinase, smooth muscle (Homo sapiens) (UniProt Q15746); assay: Inhibition of human MLCK assessed as enzyme activity at 1 uM using KKLNRTLSFAEPG as substrate preincubated for 20 mins followed by [gamma-33P]-ATP addition and measured after 120 mins by radiometric Hot-SpotSM Kinase assay relative to control
[5] = biological target: T2, Kinase suppressor of Ras 1 (Homo sapiens) (UniProt Q8IVT5); assay: Inhibition of human KSR1 assessed as enzyme activity at 1 uM using KRREILSRRPSYR as substrate preincubated for 20 mins followed by [gamma-33P]-ATP addition and measured after 120 mins by radiometric Hot-SpotSM Kinase assay relative to control
T2 sequence (whole entry): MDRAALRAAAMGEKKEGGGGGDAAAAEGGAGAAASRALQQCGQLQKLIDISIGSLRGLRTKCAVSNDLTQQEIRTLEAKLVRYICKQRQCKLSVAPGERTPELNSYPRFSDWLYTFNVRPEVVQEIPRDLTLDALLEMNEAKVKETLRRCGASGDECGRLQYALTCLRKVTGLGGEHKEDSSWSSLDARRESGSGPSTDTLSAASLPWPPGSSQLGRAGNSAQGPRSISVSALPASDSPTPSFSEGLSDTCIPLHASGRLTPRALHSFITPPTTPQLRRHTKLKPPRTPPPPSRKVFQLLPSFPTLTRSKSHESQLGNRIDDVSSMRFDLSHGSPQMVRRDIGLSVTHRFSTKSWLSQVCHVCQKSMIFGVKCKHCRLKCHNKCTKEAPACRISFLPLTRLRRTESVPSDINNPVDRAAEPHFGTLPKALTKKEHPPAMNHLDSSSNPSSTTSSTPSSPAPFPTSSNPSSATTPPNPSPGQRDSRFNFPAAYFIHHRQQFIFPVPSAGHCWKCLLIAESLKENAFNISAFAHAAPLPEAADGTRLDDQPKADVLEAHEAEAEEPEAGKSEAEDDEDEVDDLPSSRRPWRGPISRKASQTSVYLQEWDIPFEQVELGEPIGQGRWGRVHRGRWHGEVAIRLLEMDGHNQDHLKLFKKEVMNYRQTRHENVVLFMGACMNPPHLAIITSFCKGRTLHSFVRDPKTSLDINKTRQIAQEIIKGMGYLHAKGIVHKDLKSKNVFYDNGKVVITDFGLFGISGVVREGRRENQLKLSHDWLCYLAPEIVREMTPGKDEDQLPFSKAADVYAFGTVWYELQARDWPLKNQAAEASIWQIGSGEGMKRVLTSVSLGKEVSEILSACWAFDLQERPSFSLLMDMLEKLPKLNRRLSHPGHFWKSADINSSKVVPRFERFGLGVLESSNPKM

[6] = biological target: Mitogen-activated protein kinase kinase kinase 21 (Homo sapiens) (UniProt Q5TCX8); assay: Inhibition of human MLK4 assessed as enzyme activity at 1 uM using MEK1 (K97R) as substrate preincubated for 20 mins followed by [gamma-33P]-ATP addition and measured after 120 mins by radiometric Hot-SpotSM Kinase assay relative to control
Sequence of Mitogen-activated protein kinase kinase kinase 21 (Homo sapiens) (Q5TCX8 whole entry): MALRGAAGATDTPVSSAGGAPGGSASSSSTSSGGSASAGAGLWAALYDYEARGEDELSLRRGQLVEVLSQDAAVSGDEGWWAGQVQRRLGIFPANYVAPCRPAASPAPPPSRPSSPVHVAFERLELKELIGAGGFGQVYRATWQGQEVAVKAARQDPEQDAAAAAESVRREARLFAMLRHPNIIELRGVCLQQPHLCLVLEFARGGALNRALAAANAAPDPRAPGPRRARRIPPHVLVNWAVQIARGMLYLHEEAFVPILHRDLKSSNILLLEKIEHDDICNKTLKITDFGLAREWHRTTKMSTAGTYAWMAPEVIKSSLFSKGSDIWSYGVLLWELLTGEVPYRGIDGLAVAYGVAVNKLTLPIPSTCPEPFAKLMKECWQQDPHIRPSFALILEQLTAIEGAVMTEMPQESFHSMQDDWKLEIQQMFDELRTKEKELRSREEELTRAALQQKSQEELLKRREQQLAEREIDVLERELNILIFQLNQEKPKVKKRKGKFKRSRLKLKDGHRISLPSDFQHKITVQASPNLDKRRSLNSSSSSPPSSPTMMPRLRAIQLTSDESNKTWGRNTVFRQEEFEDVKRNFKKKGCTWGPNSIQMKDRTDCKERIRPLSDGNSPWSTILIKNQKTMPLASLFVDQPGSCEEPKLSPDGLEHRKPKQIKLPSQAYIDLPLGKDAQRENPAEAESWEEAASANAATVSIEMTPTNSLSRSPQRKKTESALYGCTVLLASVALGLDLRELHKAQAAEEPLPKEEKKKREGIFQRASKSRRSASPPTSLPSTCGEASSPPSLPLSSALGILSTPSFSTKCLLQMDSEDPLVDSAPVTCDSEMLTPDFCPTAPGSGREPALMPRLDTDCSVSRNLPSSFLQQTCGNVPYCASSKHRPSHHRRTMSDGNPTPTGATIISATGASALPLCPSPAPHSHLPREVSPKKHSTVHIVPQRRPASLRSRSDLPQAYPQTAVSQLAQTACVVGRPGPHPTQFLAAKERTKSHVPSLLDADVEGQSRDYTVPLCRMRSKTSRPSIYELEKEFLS

[7] = biological target: Tyrosine-protein kinase JAK2 (Homo sapiens) (UniProt O60674); assay: Inhibition of human JAK2 assessed as enzyme activity at 1 uM using poly[Glu:Tyr] (4:1) as substrate preincubated for 20 mins followed by [gamma-33P]-ATP addition and measured after 120 mins by radiometric Hot-SpotSM Kinase assay relative to control
Sequence of Tyrosine-protein kinase JAK2 (Homo sapiens) (O60674 whole entry): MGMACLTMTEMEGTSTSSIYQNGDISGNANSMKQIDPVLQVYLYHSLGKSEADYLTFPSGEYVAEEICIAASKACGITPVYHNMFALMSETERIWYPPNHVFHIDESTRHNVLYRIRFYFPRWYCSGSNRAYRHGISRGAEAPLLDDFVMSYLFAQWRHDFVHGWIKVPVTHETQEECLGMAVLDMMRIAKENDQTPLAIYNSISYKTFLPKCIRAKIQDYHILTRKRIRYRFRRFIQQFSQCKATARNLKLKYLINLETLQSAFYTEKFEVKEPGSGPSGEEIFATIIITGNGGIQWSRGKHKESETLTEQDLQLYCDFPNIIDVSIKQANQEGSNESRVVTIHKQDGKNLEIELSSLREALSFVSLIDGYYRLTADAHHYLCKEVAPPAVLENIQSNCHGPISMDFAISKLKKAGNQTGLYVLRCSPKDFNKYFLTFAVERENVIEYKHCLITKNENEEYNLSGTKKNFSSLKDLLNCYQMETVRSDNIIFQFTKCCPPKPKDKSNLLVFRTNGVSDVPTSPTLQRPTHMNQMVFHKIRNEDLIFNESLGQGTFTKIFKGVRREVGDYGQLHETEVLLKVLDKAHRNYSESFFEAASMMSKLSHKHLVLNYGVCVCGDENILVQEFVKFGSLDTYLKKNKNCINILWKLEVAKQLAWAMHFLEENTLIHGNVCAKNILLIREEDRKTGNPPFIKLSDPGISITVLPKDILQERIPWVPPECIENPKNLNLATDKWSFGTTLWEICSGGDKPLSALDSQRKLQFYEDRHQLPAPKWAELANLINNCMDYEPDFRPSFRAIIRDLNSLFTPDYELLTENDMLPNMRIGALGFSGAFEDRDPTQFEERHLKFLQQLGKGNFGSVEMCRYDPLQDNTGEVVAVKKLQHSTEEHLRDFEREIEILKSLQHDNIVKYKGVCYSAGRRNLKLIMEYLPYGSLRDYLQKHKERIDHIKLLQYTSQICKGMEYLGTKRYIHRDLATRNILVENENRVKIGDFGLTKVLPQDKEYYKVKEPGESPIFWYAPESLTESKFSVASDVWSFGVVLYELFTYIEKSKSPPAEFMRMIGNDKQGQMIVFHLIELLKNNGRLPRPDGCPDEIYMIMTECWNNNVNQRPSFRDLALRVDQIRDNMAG

[8] = biological target: T3, Serine/threonine-protein kinase 17A (Homo sapiens) (UniProt Q9UEE5); assay: Inhibition of human DRAK1/STK17A assessed as enzyme activity at 1 uM using KKLNRTLSFAEPG as substrate preincubated for 20 mins followed by [gamma-33P]-ATP addition and measured after 120 mins by radiometric Hot-SpotSM Kinase assay relative to control
T3 sequence (whole entry): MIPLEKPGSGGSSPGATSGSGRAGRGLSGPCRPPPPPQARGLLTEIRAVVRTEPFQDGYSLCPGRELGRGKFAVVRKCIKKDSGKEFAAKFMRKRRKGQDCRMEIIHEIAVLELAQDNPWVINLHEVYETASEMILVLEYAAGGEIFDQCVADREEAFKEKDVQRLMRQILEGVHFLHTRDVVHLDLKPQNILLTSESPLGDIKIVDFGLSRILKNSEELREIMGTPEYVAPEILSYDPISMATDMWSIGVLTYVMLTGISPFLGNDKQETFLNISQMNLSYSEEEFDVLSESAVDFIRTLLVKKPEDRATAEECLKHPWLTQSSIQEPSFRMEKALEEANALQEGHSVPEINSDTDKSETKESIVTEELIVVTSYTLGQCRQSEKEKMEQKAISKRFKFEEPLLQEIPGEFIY

[9] = biological target: Cyclin-dependent kinase 5/CDK5 activator 1 (Homo sapiens) (UniProt Q00535+Q15078); assay: Inhibition of human CDK5/p25 assessed as enzyme activity at 1 uM using RB Protein as substrate preincubated for 20 mins followed by [gamma-33P]-ATP addition and measured after 120 mins by radiometric Hot-SpotSM Kinase assay relative to control; type: protein-complex assay
Sequence of Cyclin-dependent kinase 5/CDK5 activator 1 (Homo sapiens) (Q00535 whole entry): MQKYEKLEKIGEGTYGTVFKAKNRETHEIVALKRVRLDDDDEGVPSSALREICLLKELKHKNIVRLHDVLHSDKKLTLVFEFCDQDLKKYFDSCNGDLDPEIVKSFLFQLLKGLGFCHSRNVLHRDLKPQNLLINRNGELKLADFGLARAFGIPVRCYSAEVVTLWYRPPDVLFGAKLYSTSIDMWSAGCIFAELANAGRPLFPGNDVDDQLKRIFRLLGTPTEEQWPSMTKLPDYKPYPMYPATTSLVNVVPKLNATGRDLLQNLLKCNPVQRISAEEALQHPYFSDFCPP
Sequence of Cyclin-dependent kinase 5/CDK5 activator 1 (Homo sapiens) (Q15078 99-307 partner limits assumed): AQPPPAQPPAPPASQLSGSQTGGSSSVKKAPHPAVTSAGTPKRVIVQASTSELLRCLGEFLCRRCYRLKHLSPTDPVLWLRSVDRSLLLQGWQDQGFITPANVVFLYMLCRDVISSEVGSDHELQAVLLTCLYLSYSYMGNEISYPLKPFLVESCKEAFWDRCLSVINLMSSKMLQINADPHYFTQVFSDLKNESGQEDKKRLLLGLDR

Sequence of Protein kinase C theta type (Homo sapiens) (Q04759 whole entry, looked up): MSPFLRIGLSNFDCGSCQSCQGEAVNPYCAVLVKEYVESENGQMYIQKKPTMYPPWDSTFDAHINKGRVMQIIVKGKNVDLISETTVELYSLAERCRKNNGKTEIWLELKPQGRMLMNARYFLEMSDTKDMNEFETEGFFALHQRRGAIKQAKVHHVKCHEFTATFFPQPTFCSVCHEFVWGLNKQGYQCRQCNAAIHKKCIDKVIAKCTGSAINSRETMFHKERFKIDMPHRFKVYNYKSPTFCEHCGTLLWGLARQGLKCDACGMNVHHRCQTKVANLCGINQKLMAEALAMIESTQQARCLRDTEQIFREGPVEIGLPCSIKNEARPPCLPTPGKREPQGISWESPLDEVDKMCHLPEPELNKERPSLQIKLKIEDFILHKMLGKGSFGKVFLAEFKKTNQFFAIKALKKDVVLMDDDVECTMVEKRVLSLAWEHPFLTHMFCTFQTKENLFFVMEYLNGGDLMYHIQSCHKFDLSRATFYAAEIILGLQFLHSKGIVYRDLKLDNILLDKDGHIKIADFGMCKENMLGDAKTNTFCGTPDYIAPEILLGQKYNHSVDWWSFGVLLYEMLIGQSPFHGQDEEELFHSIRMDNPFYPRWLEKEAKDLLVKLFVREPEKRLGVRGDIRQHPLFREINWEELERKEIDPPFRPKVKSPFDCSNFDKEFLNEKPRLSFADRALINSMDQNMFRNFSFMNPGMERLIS

SMILES	Activity [1] [%]	Activity [2] [%]	Activity [3] [%]	Activity [4] [%]	Activity [5] [%]	Activity [6] [%]	Activity [7] [%]	Activity [8] [%]	Activity [9] [%]
C[C@H](Nc1ncnc2nc[nH]c12)c1cc2cccc(Cl)c2c(=O)n1-c1ccccc1	112	89.4	93.9	91.7	99.2	93.5	100	95.4	92.7
CC[C@H](Nc1ncnc2[nH]cnc12)c1nc2cccc(F)c2c(=O)n1-c1ccccc1	109	90.8	93.5	96.1	102	95.7	95.7	95.1	99.8
CC(C)Oc1ccc(-c2nn([C@@H](C)c3oc4ccc(F)cc4c(=O)c3-c3cccc(F)c3)c3ncnc(N)c23)cc1F [UMBRALISIB]	106	94.2	91.2	92.4	103	94.7	92	92.4	90.3

Reference: ChEMBL document CHEMBL5715954, “Silencing c-Myc translation as a therapeutic strategy through targeting PI3Kδ and CK1ε in hematological malignancies” (Blood, 2017)
